# Test results published in patent US5635379A, “D-2-alkyl-tryptophan and peptides containing same” (Deghenghi; Romano, priority 1990, dated 1997).
# Square brackets hold non-standard residues; d marks the D form. Peptide text beside a SMILES is read from it. dTrp(2-Me) = Cc1[nH]c2ccccc2c1C[C@@H](N)C(=O)O
# Key:
# Growth Hormone release = test: GH release in 10-day old rats after subcutaneous injection; type: in vivo; details: s.c. 160 μg/kg
# Procedure: The peptides of Examples 4 and 5 were tested as Growth Hormone releasers in rats. GH released in a series of seven 10-day old rats, injected subcutaneously with a standard dose of 160 μg/kg and sacrificed 15 minutes after the injection.
# [1] = tested on: pituitary cell monolayers; test: GH-releasing activity in pituitary cell culture (monolayers); type: cell-based, Sprague Dawley rats; details: for GH in medium: 2 hours incubation
# Procedure: (§1) Male Sprague Dawley rats (Charles River, Calco, Italy) of 2-3 months of age were used. Rats were housed at 22 +2° C., with lighting cycle of 14 h light: 10 h dark (lights on from 06.00 to 20.00 h), at least 10 days before starting the experiments. A standard dry diet and water were available ad libitum.
# Pituitary tissue used for cell dissociation included only the anterior lobe. Briefly, pituitary glands were collected in sterile F-10 medium and after cutting into small fragments incubated twice (30 minutes each) at 37° C. in F-10 medium containing 6% fetal calf serum and collagenase (2.5 mg/ml) (Boehringer, Mannheim GmbH, Germany). Fragments were then washed in Dulbecco's PBS, Ca^2+ and Mg^2+ free medium and mechanically dissociated. Single cell suspension was planted onto 24-well (2×10^5 cells/well) culture plates. The cells were incubated in F-10 medium supplemented with 10% horse serum, 4% fetal calf serum and gentamycin (25 μg/ml), in a humidified atmosphere of 5% CO2 and 95% air at 37° C.
# After 3 days, the medium was removed and the cells washed twice with serum free F-10, then incubated with 1 ml of F-10 containing 0.1% BSA only, or with added various concentrations of synthetic peptides.
# After incubation for 2 h at 37° C., media were collected and stored frozen at -20° C. until assayed for measurement of GH content.
# (§2) Medium and plasma GH was measured by radioimmunoassay using materials supplied by the NIADDK Bethesda, Md. Values were expressed in term of NIASSK-rat-GH-RP-2 standard (potency 2 IU/ml), as ng/ml of medium or plasma.
# (§3) The minimum detectable value of rat was 1.0 ng/ml; intra-assay variability was 6%. To avoid inter-assay variation, samples from each experiment were assayed simultaneously.
# GH release [2] = test: GH-releasing activity s.c. in male rats anesthetized with ketamine and xilazine; type: in vivo, Sprague Dawley rats
# Procedure: as §1
# Between 09.00-10.00 h rats were anesthetized with ketamine (58 mg/kg, Inoketam, VIRBAC, Milano) and xilazine (12 mg/kg, Rompun, Bayer, Milano). Thirty minutes later, a blood sample ([…]) was withdrawn from the exposed jugular vein, peptides were injected intravenously or subcutaneously, and further blood samples were collected 10, 20 and 30 minutes later.
# as §2, §3
# [3] = Acute cardiovascular toxicity in the rat, single i.v. dose, mortality; type: in vivo; details: for Dead rats/Total N° of rats per group: observed up to 4 hours
# Procedure: These two peptides were also tested for acute cardiovascular toxicity in the rat.
# Dosages were calculated on the basis of the declared peptide content in each product, as specified below:
# A single dose of HEXARELIN or GHRP-6 was administered to rats in different calendar dates in such a way that each group/dose should be treated in two subsequent days.
# For each compound, appropriate amounts of solutions in 0.9% NaCl for injection were prepared just before treatment at the suitable concentrations. The solutions were sterilized by filtration (Millipore filter, pore size 0.22 μm). Owing to the type of the study (acute study) in which formulates were administered just after preparation, stability checks were not performed. Concentration checks were also not performed. The volume of solution injected was maintained constant at 1 ml/Kg.
# The intravenous injections were done as a single dose in one vein of the tail with an appropriately gauged sterile, disposable, plastic syringe. The injection rate was about 0.1 ml/sec.
# Periodical observations were made up to 4 hours after treatment. Abnormality and mortality were recorded. Body weight was recorded once during pre-trial and on the administration day to calculate the volumes to be injected.
# GH release [4] = test: GH response in conscious, freely-moving rats after antiserum pretreatment and i.v. peptide; type: in vivo
# Procedure: Sixty male rats were prepared with indwelling venous catheters under ether anesthesia three days before experimentation. On the day of experimentation, all animals were given an iv heparin injection (100 IU; 0630 h). At 0700 h, animals were treated with 0.5 ml of either normal serum (control-as), somatostatin antiserum (somatostatin-as; 0.25 ml+0.25 ml saline), growth hormone-releasing hormone antiserum (GHRH-as; 0.25 ml+0.25 ml saline), or both somatostatin antiserum and growth hormone-releasing hormone antiserum (0.25 ml somatostatin-as+0.25 ml GHRH-as). Blood sampling began […] after antiserum pretreatment, with blood samples collected every 20 minutes for three hours. After the 180 minute sample (1100 h), animals were treated iv with 25 μg/kg of either Hexarelin or GHRP-6. Blood samples were then collected at 5, 10, 15, 20 30, 40, and 60 minutes after peptide treatment. All samples were centrifuged immediately and the plasma frozen until assayed. The peak GH response to Hexarelin and GHRP-6 as well as the area under the response curves (AUCs) for the thirty minutes following peptide injection were calculated. Data were subjected to repeated measures analysis of variance and are expressed as mean ±SEM.
# [5] = Hydrophobicity comparison (FIG. 12); type: physicochemical
# growth hormone secretion = test: Growth hormone secretion in young healthy male volunteers; type: in vivo, human; details: young (20-30 years old) healthy male volunteers, various dosages
# Procedure: The effects of HEXARELIN on growth hormone secretion in young (20-30 years old) healthy male volunteers were measured after the administration of various dosages.
# [6] = i.v. 25 μg/kg peptide, pooled over antiserum pretreatments
structure (smiles),measurement,setting,value
"Cc1[nH]c2ccccc2c1C[C@@H](NC(=O)[C@@H](N)Cc1cnc[nH]1)C(=O)N[C@@H](C)C(=O)N[C@@H](Cc1c[nH]c2ccccc12)C(=O)N[C@H](Cc1ccccc1)C(=O)N[C@@H](CCCCN)C(N)=O [Example 4, His-D-2-methyl-Trp-Ala-Trp-D-Phe-Lys-NH2] (H-H[dTrp(2-Me)]AW[dF]K-NH2)",activity as Growth Hormone releaser,Growth Hormone release,very active
same,GH,Growth Hormone release; sacrificed 15 minutes after injection,201 ng/mL
same,GH in medium,[1]; 10^-6 M,558.0 ± 19.1 ng/well
same,GH in medium,[1]; 10^-7 M,589.1 ± 17.9 ng/well
same,GH in medium,[1]; 10^-8 M,557.8 ± 15.9 ng/well
same,GH secretion versus basal,"[1]; 10^-8 to 10^-6 M, two hours",stimulation of GH secretion over basal secretion
same,plasma GH,"GH release [2]; s.c. 150 μg/kg, 10 min",107.1 ± 17.7 ng/mL
same,plasma GH,"GH release [2]; s.c. 150 μg/kg, 20 min",156.6 ± 18.7 ng/mL
same,plasma GH,"GH release [2]; s.c. 150 μg/kg, 30 min",86.0 ± 18.9 ng/mL
same,plasma GH,"GH release [2]; s.c. 150 μg/kg, time 0 min (before injection)",12.0 ± 4.0 ng/mL
same,plasma GH,"GH release [2]; s.c. 300 μg/kg, 10 min",80.6 ± 11.0 ng/mL
same,plasma GH,"GH release [2]; s.c. 300 μg/kg, 20 min",171.7 ± 22.0 ng/mL
same,plasma GH,"GH release [2]; s.c. 300 μg/kg, 30 min",102.7 ± 17.0 ng/mL
same,plasma GH,"GH release [2]; s.c. 300 μg/kg, time 0 min (before injection)",12.0 ± 4.0 ng/mL
same,plasma GH,"GH release [2]; s.c. 600 μg/kg, 10 min",90.7 ± 16.6 ng/mL
same,plasma GH,"GH release [2]; s.c. 600 μg/kg, 20 min",187.5 ± 15.4 ng/mL
same,plasma GH,"GH release [2]; s.c. 600 μg/kg, 30 min",115.3 ± 19.1 ng/mL
same,plasma GH,"GH release [2]; s.c. 600 μg/kg, time 0 min (before injection)",23.0 ± 6.0 ng/mL
same,"effect on plasma GH, comparison with GHRP-6","GH release [2]; s.c. 150, 300 and 600 μg/kg, 10, 20 and 30 minutes",more effective than GHRP-6 at all the considered times
same,Dead rats/Total N° of rats per group,[3]; single i.v. dose 5.0 mg/kg,0/6
same,Dead rats/Total N° of rats per group,[3]; single i.v. dose 7.5 mg/kg,1/6
same,Dead rats/Total N° of rats per group,[3]; single i.v. dose 10 mg/kg,2/6
same,toxicity compared with GHRP-6,"[3]; single i.v. dose, mortality",less toxic than GHRP-6
same,Mean GH,GH release [4]; [6],235 ± 21 ng/mL
same,Peak GH,GH release [4]; [6],552 ± 59 ng/mL
same,GH AUC,"GH release [4]; i.v. 25 μg/kg peptide, thirty minutes following injection, pooled over antiserum pretreatments",7366 ± 912 ng/ml/30 min
same,overall GH response compared with GHRP-6,"GH release [4]; i.v. 25 μg/kg, pooled results",more effective in eliciting a higher mean GH response as compared to GHRP-6
same,hydrophobicity compared with GHRP-6,[5],greater hydrophobicity than GHRP-6
same,effect on growth hormone secretion,growth hormone secretion,effective in vivo
